# In US7462601B2, “Ameliorant for chemical treatment of cancer” (priority 2002, dated 2008):
# Legend:
# Type in all cases: in vivo, BDF mice
# [1] = Repressing side effects (4): decrease of body weight under ADM in P388 leukemia mice; details: Control Group: ADM 16 mg/kg once daily for 9 days
# Experimental: P388 leukemia cells (6×10^6 cells) were administered intraperitoneally to female BDF mice of 8-9 weeks old (8 heads per group, body weight of 20-22 g). On the following day, ADM was administered in a dosage of 16 mg/kg once daily for 9 days. The mice formed Control Group. A group of mice to which TMG was administered simultaneously with ADM in a dosage of 0.1 mg/kg once daily for 9 days formed Test Group.
# The time-course changes of the body weight of the Control Group and Test Group were measured.
# P388 leukemia cells [2] = test: Enhancing carcinostatic action in cancer chemotherapy (3): ADM and TMG, survival of P388 leukemia mice; details: ADM 16 mg/kg i.p. 1st, 3rd, 5th, 7th days, TMG 0, 7 days after administration
# Experimental: P388 leukemia cells (6×10^6 cells) were administered intraperitoneally to female BDF mice of 8-9 weeks old (8 heads per group, body weight of 20-22 g). On the following day (1st day), 16 mg/kg of adriamycin (ADM) and a prescribed amount TMG were intraperitoneally administered to the mice. Thereafter, ADM (16 mg/kg) was administered on the 3rd, 5th, and 7th days and TMG (prescribed amount as mentioned above) was simultaneously administered every day on the 2nd-7th days. The survival ratio of these mice was measured 7 days after the administration of ADM and TMG.
# [3] = Repressing side effects (2): number of leukocytes in blood under CDDP; details: Control Group: CDDP 2 mg/kg i.p. once daily for 10 days
# Experimental: CDDP was intraperitoneally administered in a dosage of 2 mg/kg to 5 BDF mice of 8 weeks old once daily for 10 days. These mice formed Control Group. A group of mice to which CDDP was administered simultaneously with TMG in a dosage of 1 mg/kg once daily for 10 days formed Test Group. The time course changes of the numbers of leukocytes in blood of the Control Group and Test Group were measured.
# [4] = Repressing side effects (1): survival after lethal dose of CDDP
# Experimental: CDDP was intraperitoneally administered in a dosage of 16 mg/kg, a lethal dose, to 10 BDF mice of 8 weeks old (22-25 g). These mice formed Control Group. A group of mice to which CDDP was administered simultaneously with TMG in a dosage of 0.01 mg/kg formed Test Group 1 and a group of mice to which CDDP was administered simultaneously with TMG in a dosage of 1.0 mg/kg formed Test Group 2. The time course changes of survival ratio of the Control Group and Test Groups were measured.
# P388 leukemia cells [5] = test: Enhancing carcinostatic action in cancer chemotherapy (1): CDDP and TMG, survival of P388 leukemia mice; details: 5th, TMG 0, 60 days; for Number surviving: 8 per group
# Experimental: P388 leukemia cells (6×10^6 cells) were administered intraperitoneally to female BDF mice of 8-9 weeks old (8 heads per group, body weight of 20-22 g). On the following day, a solution having prescribed amounts of cisplatin (CDDP) and TMG in 0.2 ml of physiological saline was intraperitoneally administered to the mice. The survival ratio of these mice was measured 60 days after the administration of CDDP and TMG.
# P388 leukemia cells [6] = test: Enhancing carcinostatic action in cancer chemotherapy (2): CPA and TMG, survival of P388 leukemia mice; details: CPA alone administered, 360 mg/kg i.p. 1st, 3rd, 5th, 7th days, 60 days
# Experimental: P388 leukemia cells (6×10^6 cells) were administered intraperitoneally to female BDF mice of 8-9 weeks old (8 heads per group, body weight of 20-22 g). On the following day (1st day), cyclophosphamide (CPA) and TMG were administered at respective dose of 360 mg/kg and 0.01 mg/kg were intraperitoneally administered to the mice. Thereafter, CPA (360 mg/kg) was administered on the 3rd, 5th, and 7th days and TMG (0.01 mg/kg) was administered every day from the 2nd through 9th days. The survival ratio of these mice was measured 60 days after the administration of CPA and TMG.
# [7] = CDDP 2 mg/kg i.p. 1st, 3rd, 7th days
# [8] = CDDP 4 mg/kg i.p. 1st, 9th days
compound,measurement,setting,value
"COc1cccc2c1C(=O)c1c(O)c3c(c(O)c1C2=O)C[C@@](O)(C(=O)CO)C[C@@H]3O[C@H]1C[C@H](N)[C@H](O)[C@H](C)O1 [ADM, adriamycin]",Decrease of body weight,"[1]; P388 mice, day 1 after start of the test",1.5 g
same,Decrease of body weight,[1]; day 3,3.3 g
same,Decrease of body weight,[1]; day 5,5.7 g
same,Decrease of body weight,[1]; day 7,6.5 g
same,Survival ratio,P388 leukemia cells [2],0%
same,Number surviving,P388 leukemia cells [2]; 8 per group,0 Heads
"[NH2][Pt]([NH2])([Cl])[Cl] [CDDP, cisplatin]",Number of leukocytes,[3]; day 0 after start of test,20000 µL⁻¹
same,Number of leukocytes,[3]; day 10,10000 µL⁻¹
same,Number of leukocytes,[3]; day 20,6000 µL⁻¹
same,Number of leukocytes,[3]; day 25,11000 µL⁻¹
same,Survival ratio,"[4]; Control Group: CDDP 16 mg/kg i.p. (lethal dose) alone, day 0 after administration of CDDP",100%
same,Survival ratio,"[4]; Control Group: CDDP 16 mg/kg i.p. alone, day 5",80%
same,Survival ratio,"[4]; Control Group: CDDP 16 mg/kg i.p. alone, day 8",30%
same,Survival ratio,"[4]; Control Group: CDDP 16 mg/kg i.p. alone, day 10",0%
same,Survival ratio,P388 leukemia cells [5]; [7],75%
same,Number surviving,P388 leukemia cells [5]; [7],6 Heads
same,Survival ratio,P388 leukemia cells [5]; [8],75%
same,Number surviving,P388 leukemia cells [5]; [8],6 Heads
"O=P1(N(CCCl)CCCl)NCCCO1 (centres unmarked) [CPA, cyclophosphamide]",Survival ratio,P388 leukemia cells [6],50%
same,Number surviving,P388 leukemia cells [6]; 8 per group,4 Heads
